Measurements taken from patent US10624895B2, “Methods of sensitizing a patient with glioma to a therapeutic agent by administering small hairpin RNA targeting PDZ-RHOGEF” (THE TRANSLATIONAL GENOMICS RESEARCH INSTITUTE, priority 2016, dated 2020).

Test system: T98G cells overexpressing TROY
Assay: TROY-induced transwell migration with erlotinib
Type: cell-based, human
Conditions: erlotinib (20 uM) 30 min prior to EGF (20 nM), 24 hours
Method: FIG. 40 depicts the impact of EGFR suppression by erlotinib on TROY-induced glioma cell migration. Parental T98G (copGFP) and T98G cells overexpressing TROY (TROY WT) were […] for 16 hours and placed into a transwell migration chamber. Cells were then pretreated with erlotinib (20 uM) for 30 min prior to EGF stimulation (20 nM). Cell migration was after 24 hours (* p<0.01).
Thus, the capacity of TROY to stimulate glioma cell invasion and increase TMZ and IR resistance could rely on the formation of a TROY-EGFR signaling complex. This association could activate, or potentiate, shared signaling pathways survival pathways as well as activate distinct TROY signaling pathways that mediate TROY receptor specific functional activities. Therefore, therapeutic approaches targeting TROY and/or both receptors may yield increased therapeutic benefit.

C#Cc1cccc(Nc2ncnc3cc(OCCOC)c(OCCOC)cc23)c1 [erlotinib]
TROY-induced glioma cell migration: suppresses TROY-induced glioma cell migration
